# The source made the active and inactive calls. No rule for the calls is given here.
# Tested on: GENE-TOX genotoxicity assays, various organisms and cells
# Experiment: GENE-TOX mutagenicity studies
# Conditions: for call: Assay Type: In vivo carcinogenicity studies
# [1] = Species/Cell Type: Salmonella typhimurium (one or more of the five standard strains: TA98, TA100, TA1535, TA1537, and TA1538), Assay Type: Histidine reverse gene mutation, Ames assay, Assay Code: SAL+, Evaluation Type: Evaluation A (Pre-1980)
# [2] = Species/Cell Type: Salmonella typhimurium (one or more of the five standard strains: TA98, TA100, TA1535, TA1537, and TA1538), Assay Type: Histidine reverse gene mutation, Ames assay, Assay Code: SALT, Evaluation Type: Evaluation A (Pre-1980)
# [3] = Species/Cell Type: Human lymphocytes, Assay Type: Sister-chromatid exchange (SCE) in vitro, Assay Code: SCL+, Evaluation Type: Evaluation B (Post-1980)
# [4] = Species/Cell Type: Human, Assay Type: Sister-chromatid exchange (SCE) in vitro, Assay Code: SC1+D, Dose Response: With dose response, Evaluation Type: Evaluation B (Post-1980)
# [5] = Species/Cell Type: Nonhuman, Assay Code: CCG+, Evaluation Type: Evaluation A (Pre-1980)
# [6] = Species/Cell Type: Bacillus subtilis (H17 vs M45), Assay Type: Rec-assay, spot test, DNA effects (bacterial DNA repair), Assay Code: REW+, Evaluation Type: Evaluation A (Pre-1980)
compound,measurement,setting,value
CCNc1nc(Cl)nc(NC(C)(C)C#N)n1,mutagenic call,"Species/Cell Type: Drosophila melanogaster, Assay Type: Aneuploidy, partial sex chromosome loss, chromosome aberrations, Assay Code: DAPT, Evaluation Type: Evaluation A (Pre-1980)",no conclusion
same,mutagenic call,"Species/Cell Type: Drosophila melanogaster, Assay Type: Aneuploidy, sex chromosome gain, chromosome aberrations, Assay Code: DAGT, Evaluation Type: Evaluation A (Pre-1980)",no conclusion
same,mutagenic call,"Species/Cell Type: Drosophila melanogaster, Assay Type: Aneuploidy, whole sex chromosome loss, chromosome aberrations, Assay Code: DAC-M, Evaluation Type: Evaluation A (Pre-1980)",inactive; negative
same,mutagenic call,"Species/Cell Type: Drosophila melanogaster, Assay Type: Sex-linked recessive lethal gene mutation, Assay Code: SRLT, Evaluation Type: Evaluation A (Pre-1980)",no conclusion
same,mutagenic call,"Species/Cell Type: Neurospora crassa, Assay Type: Aneuploidy, chromosome aberrations, Assay Code: NEN-, Evaluation Type: Evaluation A (Pre-1980)",inactive; negative
same,mutagenic call,"Species/Cell Type: Tradescantia species, Assay Type: Chromosome aberrations, Assay Code: TRC+, Evaluation Type: Evaluation A (Pre-1980)",active; positive
same,mutagenic call,"Species/Cell Type: Vicia faba, Assay Type: Chromosome aberrations, Assay Code: VIC+, Evaluation Type: Evaluation A (Pre-1980)",active; positive
same,mutagenic call,"Species/Cell Type: Zea mays (corn), Assay Type: Gene mutation, Assay Code: ZEM+, Evaluation Type: Evaluation A (Pre-1980)",active; positive
ClCCN(CCCl)c1ccc2ccccc2c1,mutagenic call,"Species/Cell Type: Drosophila melanogaster, Assay Type: Sex-linked recessive lethal gene mutation, Assay Code: SRL+, Evaluation Type: Evaluation A (Pre-1980)",active; positive
same,call,"Species/Cell Type: Nonhuman, Assay Code: CCG+L, Evaluation Type: Evaluation A (Pre-1980)",active; positive
same,mutagenic call,[1],active; positive
same,mutagenic call,"Species/Cell Type: Syrian hamster embryo (SA7/SHE) cells, Assay Type: Cell transformation, viral enhanced, Assay Code: CT7+, Evaluation Type: Evaluation A (Pre-1980)",active; positive
OC1CCCCC1,mutagenic call,"Species/Cell Type: Allium cepa, Assay Type: Chromosome aberrations, Assay Code: ALC-, Evaluation Type: Evaluation A (Pre-1980)",inactive; negative
C1=CC2C3C=CC(C3)C2C1 (configuration not stated),mutagenic call,"Species/Cell Type: Saccharomyces cerevisiae, Assay Type: Mitotic recombination or gene conversion, Assay Code: YEH-, Evaluation Type: Evaluation A (Pre-1980)",inactive; negative
same,mutagenic call,"Species/Cell Type: Salmonella typhimurium (one or more of the five standard strains: TA98, TA100, TA1535, TA1537, and TA1538), Assay Type: Histidine reverse gene mutation, Ames assay, Assay Code: SAL-, Evaluation Type: Evaluation A (Pre-1980)",inactive; negative
Cc1cc2c(ccc3ccccc32)c2c1C(=O)CC2,mutagenic call,[2],no conclusion
C=Cc1cn([C@H]2C[C@H](O)[C@@H](CO)O2)c(=O)[nH]c1=O,mutagenic call,[3],active; positive
same,mutagenic call,[4],active; positive
C1CCNCC1,mutagenic call,"Species/Cell Type: Salmonella typhimurium, Assay Type: Forward and reverse gene mutation, host-mediated assay, Assay Code: HMA-, Evaluation Type: Evaluation A (Pre-1980)",inactive; negative
CCCc1cc(=O)[nH]c(=S)[nH]1,call,[5],active; positive
CC(=O)[O][Hg][c]1ccccc1,mutagenic call,[6],active; positive
same,mutagenic call,"Species/Cell Type: Drosophila melanogaster, Assay Type: Aneuploidy, sex chromosome gain, chromosome aberrations, Assay Code: DAG+F, Evaluation Type: Evaluation A (Pre-1980)",active; positive
same,mutagenic call,"Species/Cell Type: Drosophila melanogaster, Assay Type: Aneuploidy, whole sex chromosome loss, chromosome aberrations, Assay Code: DAC+F, Evaluation Type: Evaluation A (Pre-1980)",active; positive
O=C(O)/C=C/c1ccc([N+](=O)[O-])o1,mutagenic call,[1],active; positive
CCC(C)c1ccccc1OC(=O)N(C)N=O (configuration not stated),mutagenic call,"Species/Cell Type: Bacillus subtilis (H17 vs M45T), Assay Type: Rec-assay, spot test, DNA effects (bacterial DNA repair), Assay Code: REX+, Evaluation Type: Evaluation A (Pre-1980)",active; positive
same,mutagenic call,"Species/Cell Type: Escherichia coli WP2, Assay Type: Tryptophan reverse gene mutation, Assay Code: WP2+, Evaluation Type: Evaluation A (Pre-1980)",active; positive
Nc1cccc2cc3ccccc3nc12,mutagenic call,"Species/Cell Type: Saccharomyces cerevisiae, Assay Type: Forward gene mutation, Assay Code: YEFT, Evaluation Type: Evaluation A (Pre-1980)",no conclusion
same,mutagenic call,"Species/Cell Type: Saccharomyces cerevisiae, Assay Type: Reverse gene mutation, Assay Code: YERT, Evaluation Type: Evaluation A (Pre-1980)",no conclusion
BrC(Br)Br,mutagenic call,"Species/Cell Type: Human lymphocytes, Assay Type: Sister-chromatid exchange (SCE) in vitro, Assay Code: SCL+D, Dose Response: With dose response, Evaluation Type: Evaluation B (Post-1980)",active; positive
same,mutagenic call,[4],active; positive
same,mutagenic call,"Species/Cell Type: Nonhuman, Assay Type: Sister-chromatid exchange (SCE) in vitro, Assay Code: SC2+D, Dose Response: With dose response, Evaluation Type: Evaluation B (Post-1980)",active; positive
same,mutagenic call,"Species/Cell Type: Nonhuman, Assay Type: Sister-chromatid exchange (SCE) in vivo, Assay Code: SC3+D, Dose Response: With dose response, Evaluation Type: Evaluation B (Post-1980)",active; positive
CC(=O)OC[C@H]1OC(OC(C)=O)[C@H](NC(=O)N(C)N=O)[C@@H](OC(C)=O)[C@@H]1OC(C)=O (some centres not stated),mutagenic call,"Species/Cell Type: Chinese hamster lung (V79) cells, Assay Type: Forward gene mutation at the HPRT or ouabain locus, Assay Code: V79+, Evaluation Type: Evaluation A (Pre-1980)",active; positive
CC[C@H]1OC(=O)[C@H](C)[C@@H](O[C@H]2C[C@@](C)(OC)[C@@H](O)[C@H](C)O2)[C@H](C)[C@@H](O[C@@H]2O[C@H](C)C[C@H](N(C)C)[C@H]2O)[C@](C)(O)C[C@@H](C)C(=O)[C@H](C)[C@@H](O)[C@]1(C)O,mutagenic call,"Species/Cell Type: Escherichia coli polA (W3119 vs P3478), Assay Type: Rec-assay, DNA effects (bacterial DNA repair), Assay Code: RE1-, Evaluation Type: Evaluation A (Pre-1980)",inactive; negative
COc1c2occc2cc2ccc(=O)oc12,mutagenic call,"Species/Cell Type: Aspergillus nidulans, Assay Type: Aneuploidy, chromosome aberrations, Assay Code: ASN-, Evaluation Type: Evaluation A (Pre-1980)",inactive; negative
same,mutagenic call,"Species/Cell Type: Aspergillus nidulans, Assay Type: Forward gene mutation, Assay Code: ASFT, Evaluation Type: Evaluation A (Pre-1980)",no conclusion
same,mutagenic call,[3],active; positive
same,mutagenic call,"Species/Cell Type: Human lymphocytes, Assay Type: Sister-chromatid exchange (SCE) in vitro, Assay Code: SCLT, Evaluation Type: Evaluation A (Pre-1980)",no conclusion
same,mutagenic call,"Species/Cell Type: Human, Assay Type: Sister-chromatid exchange (SCE) in vitro, Assay Code: SC1+, Evaluation Type: Evaluation B (Post-1980)",active; positive
same,mutagenic call,"Species/Cell Type: Human, Assay Type: Sister-chromatid exchange (SCE) in vitro, Assay Code: SC1T, Evaluation Type: Evaluation A (Pre-1980)",no conclusion
same,call,"Species/Cell Type: Nonhuman, Assay Code: CCGT, Evaluation Type: Evaluation A (Pre-1980)",no conclusion
same,mutagenic call,"Species/Cell Type: Nonhuman, Assay Type: Sister-chromatid exchange (SCE) in vitro, Assay Code: SC2T, Evaluation Type: Evaluation A (Pre-1980)",no conclusion
same,mutagenic call,"Species/Cell Type: Nonhuman, Assay Type: Sister-chromatid exchange (SCE) in vivo, Assay Code: SC3T, Evaluation Type: Evaluation B (Post-1980)",no conclusion
same,mutagenic call,"Species/Cell Type: Saccharomyces cerevisiae, Assay Type: Mitotic recombination or gene conversion, Assay Code: YEH+, Evaluation Type: Evaluation A (Pre-1980)",active; positive
same,mutagenic call,"Species/Cell Type: Saccharomyces cerevisiae, Assay Type: Reverse gene mutation, Assay Code: YER+, Evaluation Type: Evaluation A (Pre-1980)",active; positive
same,mutagenic call,[2],no conclusion
C[As](SC#N)SC#N,mutagenic call,[6],active; positive
Cc1cc2ccccc2c2ccc3ccccc3c12,call,[5],active; positive
same,mutagenic call,"Species/Cell Type: Salmonella typhimurium (one or more of the five standard strains: TA98, TA100, TA1535, TA1537, and TA1538), Assay Type: Histidine reverse gene mutation, Ames assay, Assay Code: SAL+*, Activation: With metabolic activation, Evaluation Type: Evaluation A (Pre-1980)",active; positive
Cl/C=C\CCl,mutagenic call,[1],active; positive
CN1CCN(CCCN2c3ccccc3S(=O)c3ccccc32)CC1,mutagenic call,"Species/Cell Type: Human lymphocytes, Assay Type: Sister-chromatid exchange (SCE) in vitro, Assay Code: SCLT, Evaluation Type: Evaluation B (Post-1980)",no conclusion
same,mutagenic call,"Species/Cell Type: Human, Assay Type: Sister-chromatid exchange (SCE) in vitro, Assay Code: SC1T, Evaluation Type: Evaluation B (Post-1980)",no conclusion
C=CCn1c(=O)n(C)c2c(=O)n(C)c(=O)n(C)c21,mutagenic call,"Species/Cell Type: Allium cepa, Assay Type: Chromosome aberrations, Assay Code: ALC+D, Dose Response: With dose response, Evaluation Type: Evaluation A (Pre-1980)",active; positive
CN(C)C(CSC(N)=O)CSC(N)=O,mutagenic call,"Species/Cell Type: Mammalian polychromatic erythrocytes, Assay Type: Micronucleus test, chromosome aberrations, Assay Code: MNTT, Evaluation Type: Evaluation B (Post-1980)",no conclusion
same,mutagenic call,"Species/Cell Type: Nonhuman bone marrow, Assay Type: Chromosome aberrations, in vivo, Assay Code: CY#-, Evaluation Type: Evaluation A (Pre-1980)",inactive; negative
Cc1cc(C(=O)NNCc2ccccc2)no1,mutagenic call,"Species/Cell Type: Nonhuman, Assay Type: Sister-chromatid exchange (SCE) in vivo, Assay Code: SC3+, Evaluation Type: Evaluation B (Post-1980)",active; positive
ClN1CC1,mutagenic call,"Species/Cell Type: Schizosaccharomyces pombe, Assay Type: Reverse gene mutation, Assay Code: YEZ+, Evaluation Type: Evaluation A (Pre-1980)",active; positive

# From PubChem BioAssay AID1259408 (Genetic Toxicology Data Bank (GENE-TOX), 2018)
